Measured values reported in ChEMBL document CHEMBL4371035, “Design, synthesis and biological evaluation of bifunctional inhibitors of membrane type 1 matrix metalloproteinase (MT1-MMP)” (Bioorg Med Chem, 2019).
Active and inactive are the calls of the source. The calls are words filed in the database; no cut-off is given here.

Tests used:
[1] = molecular target: T1, Matrix metalloproteinase-14 (Homo sapiens, UniProt P50281); experiment: Inhibition of MT1-MMP-mediated proMMP-2 activation in human HT1080 cells stimulated with type I collagen for 24 hrs followed by compound addition assessed as increase in proMT1-MMP (65 KDa) level at 1 to 10 uM and measured after 24 hrs by Western blot analysis; format: cell-based
[2] = molecular target: T1, Matrix metalloproteinase-14; experiment: Inhibition of MT1-MMP-mediated proMMP-2 activation in human HT1080 cells stimulated with type I collagen for 24 hrs followed by compound addition assessed as increase in active MT1-MMP (55 KDa) level at 1 to 10 uM and measured after 24 hrs by Western blot analysis; format: cell-based
[3] = molecular target: T1, Matrix metalloproteinase-14; settings: 0.1 to 10 uM
Description: Inhibition of MT1-MMP-mediated proMMP-2 activation in human HT1080 cells stimulated with type I collagen for 24 hrs followed by compound addition at 0.1 to 10 uM and measured after 24 hrs by gelatin zymography assay

[4] = molecular target: T1, Matrix metalloproteinase-14; settings: 0.01 uM
Description: Inhibition of MT1-MMP-mediated proMMP-2 activation in human HT1080 cells stimulated with type I collagen for 24 hrs followed by compound addition at 0.01 uM and measured after 24 hrs by gelatin zymography assay

[5] = molecular target: T1, Matrix metalloproteinase-14; settings: 1 to 10 uM
Description: Inhibition of MT1-MMP-mediated proMMP-2 activation in human HT1080 cells stimulated with type I collagen for 24 hrs followed by compound addition assessed as reduction in processed form of MT1-MMP (40 KDa) level at 1 to 10 uM and measured after 24 hrs by Western blot analysis

[6] = molecular target: T1, Matrix metalloproteinase-14; settings: 10 uM
Description: Inhibition of MT1-MMP mediated collagenolytic activity in human HT1080 cells stimulated with type I collagen for 48 hrs followed by compound addition at 10 uM and measured after 48 hrs by Coomassie Blue staining-based collagen film degradation assay

[7] = molecular target: T2, Interstitial collagenase (Homo sapiens, UniProt P03956); experiment: Inhibition of recombinant human pro-MMP1 using Mca-Lys-Pro-Leu-Gly-Leu-Dap(Dnp)-Ala-Arg-NH2 as substrate preincubated for 3 hrs followed by substrate addition and measured every 10 secs for 15 mins in presence of APMA by fluorometric assay
T2 sequence (P03956 whole entry): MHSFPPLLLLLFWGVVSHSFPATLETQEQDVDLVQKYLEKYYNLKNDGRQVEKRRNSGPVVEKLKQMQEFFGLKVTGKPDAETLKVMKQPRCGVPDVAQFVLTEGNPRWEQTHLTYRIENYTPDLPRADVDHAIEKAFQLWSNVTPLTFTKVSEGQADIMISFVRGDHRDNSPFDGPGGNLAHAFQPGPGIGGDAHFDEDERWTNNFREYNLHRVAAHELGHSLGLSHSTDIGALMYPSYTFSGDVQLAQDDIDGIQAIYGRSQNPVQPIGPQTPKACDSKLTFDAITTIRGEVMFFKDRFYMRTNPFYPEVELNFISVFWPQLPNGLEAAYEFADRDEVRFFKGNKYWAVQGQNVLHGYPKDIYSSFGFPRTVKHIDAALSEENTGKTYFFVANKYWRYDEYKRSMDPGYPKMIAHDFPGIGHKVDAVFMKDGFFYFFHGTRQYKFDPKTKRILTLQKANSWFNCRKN

[8] = molecular target: 72 kDa type IV collagenase (Homo sapiens, UniProt P08253); experiment: Inhibition of recombinant human proMMP2 using Mca-Lys-Pro-Leu-Gly-Leu-Dap(Dnp)-Ala-Arg-NH2 as substrate preincubated for 3 hrs followed by substrate addition and measured every 10 secs for 15 mins in presence of APMA by fluorometric assay
[9] = molecular target: Matrix metalloproteinase-9 (Homo sapiens, UniProt P14780); experiment: Inhibition of recombinant human proMMP9 using Mca-Lys-Pro-Leu-Gly-Leu-Dap(Dnp)-Ala-Arg-NH2 as substrate preincubated for 3 hrs followed by substrate addition and measured every 10 secs for 15 mins in presence of APMA by fluorometric assay
[10] = molecular target: T1, Matrix metalloproteinase-14; experiment: Inhibition of recombinant human MT1-MMP catalytic domain using Mca-Lys-Pro-Leu-Gly-Leu-Dap(Dnp)-Ala-Arg-NH2 as substrate preincubated for 3 hrs followed by substrate addition and measured every 10 secs for 15 min by fluorometric assay
[11] = Aqueous solubility of the compound; format: physicochemical; settings: water (aqueous)
[12] = system: HT-1080; experiment: Cytotoxicity against human HT1080 cells at 10 to 50 uM after 4 hrs by MTS assay; format: cell-based; settings: ht-1080, 4 h
[13] = molecular target: T1, Matrix metalloproteinase-14; experiment: Inhibition of MT1-MMP-mediated proMMP-2 activation in human HT1080 cells stimulated with type I collagen for 24 hrs followed by compound addition at 1 to 10 uM and measured after 24 hrs by gelatin zymography assay; format: cell-based
[14] = molecular target: T1, Matrix metalloproteinase-14; experiment: Inhibition of MT1-MMP mediated collagenolytic activity in human HT1080 cells stimulated with type I collagen for 48 hrs followed by compound addition at 1 to 10 uM and measured after 48 hrs by Coomassie Blue staining-based collagen film degradation assay; format: cell-based
[15] = molecular target: T1, Matrix metalloproteinase-14; experiment: Inhibition of MT1-MMP-mediated collagen invasion in human HT1080 cells attached to gelatin-coated Cytodex 3 microcarrier beads assessed as cell migration out from the bead surface into collagen matrix at 1 to 10 uM and measured after overnight incubation by microcarriers beads invasion assay; format: cell-based
[16] = molecular target: T1, Matrix metalloproteinase-14; experiment: Inhibition of MT1-MMP-mediated proMMP-2 activation in human HT1080 cells stimulated with type I collagen for 24 hrs followed by compound addition at <0.1 uM and measured after 24 hrs by gelatin zymography assay; format: cell-based
[17] = molecular target: T1, Matrix metalloproteinase-14; experiment: Inhibition of MT1-MMP-mediated proMMP-2 activation in human HT1080 cells stimulated with type I collagen for 24 hrs followed by compound addition assessed as increase in proMT1-MMP (65 KDa) level at 0.01 to 10 uM and measured after 24 hrs by Western blot analysis; format: cell-based
[18] = molecular target: T1, Matrix metalloproteinase-14; settings: 10 uM; remark: listed apart in the source
Description: Inhibition of MT1-MMP-mediated proMMP-2 activation in human HT1080 cells stimulated with type I collagen for 24 hrs followed by compound addition at 10 uM and measured after 24 hrs by gelatin zymography assay

[19] = molecular target: T1, Matrix metalloproteinase-14; settings: 0.01 to 10 uM
Description: Inhibition of MT1-MMP-mediated proMMP-2 activation in human HT1080 cells stimulated with type I collagen for 24 hrs followed by compound addition assessed as increase in active MT1-MMP (55 KDa) level at 0.01 to 10 uM and measured after 24 hrs by Western blot analysis

[20] = molecular target: T1, Matrix metalloproteinase-14; settings: 0.01 to 10 uM; remark: listed apart in the source
Description: Inhibition of MT1-MMP-mediated proMMP-2 activation in human HT1080 cells stimulated with type I collagen for 24 hrs followed by compound addition assessed as reduction in processed form of MT1-MMP (40 KDa) level at 0.01 to 10 uM and measured after 24 hrs by Western blot analysis

Chain of Matrix metalloproteinase-9 (P14780 whole entry, the tested form may be a part): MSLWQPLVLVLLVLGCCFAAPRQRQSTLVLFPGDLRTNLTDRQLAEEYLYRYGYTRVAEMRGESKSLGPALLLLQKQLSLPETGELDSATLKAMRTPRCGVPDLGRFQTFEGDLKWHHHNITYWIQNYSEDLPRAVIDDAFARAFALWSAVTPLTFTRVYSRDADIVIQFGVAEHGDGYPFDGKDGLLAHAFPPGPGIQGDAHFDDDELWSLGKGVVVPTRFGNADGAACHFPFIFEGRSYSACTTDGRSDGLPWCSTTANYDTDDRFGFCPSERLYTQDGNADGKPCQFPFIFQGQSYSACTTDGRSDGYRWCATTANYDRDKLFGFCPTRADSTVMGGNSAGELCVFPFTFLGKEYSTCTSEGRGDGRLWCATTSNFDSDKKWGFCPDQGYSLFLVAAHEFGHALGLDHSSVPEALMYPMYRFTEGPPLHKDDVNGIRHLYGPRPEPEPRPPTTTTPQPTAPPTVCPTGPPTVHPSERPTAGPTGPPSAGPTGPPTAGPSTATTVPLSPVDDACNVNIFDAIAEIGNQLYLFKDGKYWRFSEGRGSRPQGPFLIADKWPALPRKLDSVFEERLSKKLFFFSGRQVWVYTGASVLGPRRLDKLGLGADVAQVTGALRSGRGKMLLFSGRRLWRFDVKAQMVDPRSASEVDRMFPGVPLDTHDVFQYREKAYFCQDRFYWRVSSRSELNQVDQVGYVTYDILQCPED
Chain of 72 kDa type IV collagenase (P08253 whole entry): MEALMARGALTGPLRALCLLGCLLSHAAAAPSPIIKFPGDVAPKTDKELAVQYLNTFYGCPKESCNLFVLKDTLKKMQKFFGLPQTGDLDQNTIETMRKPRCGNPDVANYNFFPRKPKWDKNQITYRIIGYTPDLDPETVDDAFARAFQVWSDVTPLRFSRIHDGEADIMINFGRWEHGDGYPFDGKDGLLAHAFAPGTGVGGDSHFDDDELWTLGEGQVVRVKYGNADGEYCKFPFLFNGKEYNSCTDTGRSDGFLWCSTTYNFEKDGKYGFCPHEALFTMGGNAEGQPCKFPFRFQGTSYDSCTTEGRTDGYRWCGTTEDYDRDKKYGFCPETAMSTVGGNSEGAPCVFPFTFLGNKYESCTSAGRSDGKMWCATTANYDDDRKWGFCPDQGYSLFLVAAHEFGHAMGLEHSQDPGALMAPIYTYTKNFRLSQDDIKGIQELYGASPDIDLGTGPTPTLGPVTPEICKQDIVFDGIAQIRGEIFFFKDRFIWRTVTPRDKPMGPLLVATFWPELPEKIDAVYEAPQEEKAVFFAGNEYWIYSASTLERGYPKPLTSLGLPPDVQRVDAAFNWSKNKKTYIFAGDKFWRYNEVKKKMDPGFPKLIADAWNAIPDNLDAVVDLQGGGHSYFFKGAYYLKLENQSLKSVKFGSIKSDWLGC

Row | inhibition [1] | inhibition [2] | IC50 [7] | IC50 [8] | IC50 [9] | IC50 [10] | inhibition [14] | inhibition [15] | Compound | Activity [12] | also measured
1 | Active | Active | – | – | – | – | – | – | CNC(=O)[C@H](Cc1c[nH]c2ccccc12)NC(=O)[C@@H](CC(=O)NO)CC(C)C | – | inhibition [3]: Active; inhibition [4]: inactive; inhibition [5]: Active; inhibition [6]: 100%
2 | – | – | 870 nM | 1.2 nM | 1.25 nM | 80 nM | – | – | O=C(NCC[C@@H](NS(=O)(=O)c1ccc(-c2ccccc2)cc1)C(=O)NO)c1cccc(C(=O)NCC[C@@H](NS(=O)(=O)c2ccc(-c3ccccc3)cc2)C(=O)NO)c1 | – | –
3 | Dose-dependent effect | Dose-dependent effect | 150 nM | 13 nM | 14 nM | 14 nM | Active | Active | COc1ccc(-c2ccc(S(=O)(=O)N(CCNC(=O)c3cccc(C(=O)NCCN([C@H](CCN4C(=O)c5ccccc5C4=O)C(=O)NO)S(=O)(=O)c4ccc(-c5ccc(OC)cc5)cc4)c3)[C@H](CCN3C(=O)c4ccccc4C3=O)C(=O)NO)cc2)cc1 | Non-Toxic | solubility [11]: > 1000 µM; inhibition [13]: Active; inhibition [16]: inactive

Continued, compound first:

Row | Compound | inhibition [1] | inhibition [2] | IC50 [7] | IC50 [8] | IC50 [9] | IC50 [10] | inhibition [14] | inhibition [15] | Activity [12] | also measured
4 | O=C(CCCNC(=O)c1cccc(C(=O)NCCCC(=O)NCC[C@@H](NS(=O)(=O)c2ccc(-c3ccccc3)cc2)C(=O)NO)c1)NCC[C@@H](NS(=O)(=O)c1ccc(-c2ccccc2)cc1)C(=O)NO | – | – | 155 nM | 1.6 nM | 8.7 nM | 41 nM | – | – | – | –
5 | COc1ccc(-c2ccc(S(=O)(=O)N(CCNC(=O)CCCNC(=O)c3cccc(C(=O)NCCCC(=O)NCCN([C@H](CCN4C(=O)c5ccccc5C4=O)C(=O)NO)S(=O)(=O)c4ccc(-c5ccc(OC)cc5)cc4)c3)[C@H](CCN3C(=O)c4ccccc4C3=O)C(=O)NO)cc2)cc1 | – | – | 45 nM | 4.1 nM | 2.1 nM | 7 nM | – | – | – | –
6 | COc1ccc(-c2ccc(S(=O)(=O)N(OC(C)C)[C@H](CCN3C(=O)c4ccccc4C3=O)C(=O)NO)cc2)cc1 | – | – | 170 nM | – | – | – | Active | Active | Toxic | inhibition [17]: inactive; inhibition [18]: Active; inhibition [19]: inactive; inhibition [20]: inactive
